Data taken from patent US20110027858A1, “Method of Modifying Fungal Morphology” (University of Akron, priority 2009, published 2011).

How the values were obtained:
[1] = tested on: T. reesei; assay: Effects of several surfactants on morphology (flocculation / pellet formation) of T. reesei; type: cell-based, Trichoderma reesei RUT C30; details: for Effective in changing morphology?: compared with 0.5 g/L and 1 g/L surfactant concentrations
Description: The effects of several surfactants on the morphology of T. reesei were studied. TABLE 1 summarizes the observations of the effects of several surfactants regarding to flocculation or formation of pellets in T. reesei. […] All surfactants listed in TABLE 1 were compared with 0.5 g/L and 1 g/L surfactant concentrations.

[2] = tested on: T. reesei; assay: Shake flask growth of T. reesei with Triton X-100 (Example 6): morphology, growth, enzyme activity; type: cell-based, Trichoderma reesei RUT C30
Method: The effect of growing a fungus in a growth medium containing Triton X-100 was tested. A culture was grown on a growth medium containing (g/L): (NH4)2SO4 1.4, KH2PO4 2, MgSO4.7H2O 0.3, CaCl2.2H2O 0.4, urea 0.3, peptone 1.0, Tween-80 0.2, FeSO4.7H2O 0.005, MnSO4.H2O 0.0016, ZnSO4.7H2O 0.0014, CoCl2 0.002, and lactose 10.0. Initially the unadjusted pH was 5.5 after autoclaving.
Test cultures were grown in 50 mL volume in 250 mL flasks at 28° C. in a Que Orbital shaker (Model 4703, Parkersburg, W.Va., USA) at 250 rpm without pH control, initially at 5.5, for 7 days. Triton X-100 was tested at the following concentrations (g/L): 0.1, 0.3, 0.6, 0.8, 1.0, 1.5.
Cultures were followed for 7 days and visually checked for bulk morphology. Periodic monitoring was done aseptically by collecting a 2 mL representative sample every 24 hrs to measure cell concentration, enzyme activity, sugar concentration, and residual surfactant amounts.

Row | Substance | Size of generally uniform pellets formed [1] | Effective in changing morphology? [1] | global average doubling time ([2]; across tested Triton concentrations, following the lag phase) [h] | average increase in the enzyme activity ([2]; additive concentration in excess of 0.1 g/L) [%] | lag compared to the surfactant free system ([2]; concentrations above 0.1 g/L) | concentration producing "pellet" growth ([2]; tested at 0.1-1.5 g/L, 7 days, 28° C., 250 rpm) | Description: tendency toward cell flocculation with increasing surfactant concentration ([1]; 0.5 g/L and 1 g/L surfactant, flocculation is correlated with pellet formation)
1 | 4-(1,1,3,3-tetramethylbutyl)phenyl-polyethylene glycol [Triton X-100] | uniform ~1 mm pellets | YES | 9.1 ± 1.8 | 73±12 | one-day | greater than 0.3 g/L | –
2 | polyoxyethylene sorbitan monolaurate [TWEEN ® 20] | – | YES | – | – | – | – | shows tendencies toward increased
